Calls of active or inactive are those of the source.

In series [1] the target is Mitogen-activated protein kinase 8 (Homo sapiens, UniProt P45983). Description: Inhibition of JNK1 (unknown origin) using ATF2 as substrate incubated for 40 mins in presence of [gamma33P]ATP by scintillation counting analysis.
For series [2], the target named is Mitogen-activated protein kinase 9 (Homo sapiens, UniProt P45984). Description: Inhibition of JNK2 (unknown origin) using ATF2 as substrate incubated for 40 mins in presence of [gamma33P]ATP by scintillation counting analysis.
Chain of Mitogen-activated protein kinase 9 (P45984 whole entry): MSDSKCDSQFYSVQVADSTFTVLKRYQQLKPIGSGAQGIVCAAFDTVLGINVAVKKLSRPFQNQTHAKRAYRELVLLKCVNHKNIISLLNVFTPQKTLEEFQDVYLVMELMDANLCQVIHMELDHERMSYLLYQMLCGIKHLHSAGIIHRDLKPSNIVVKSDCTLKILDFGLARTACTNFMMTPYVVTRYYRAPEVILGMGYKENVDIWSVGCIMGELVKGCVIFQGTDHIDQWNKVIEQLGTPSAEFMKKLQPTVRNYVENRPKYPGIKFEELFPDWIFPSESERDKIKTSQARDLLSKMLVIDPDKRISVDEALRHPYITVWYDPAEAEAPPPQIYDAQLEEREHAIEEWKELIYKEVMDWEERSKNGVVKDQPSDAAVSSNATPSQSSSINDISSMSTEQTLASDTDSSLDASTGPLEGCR
In series [3] the test system is Neuron. Description: Neuroprotective activity against rat neuron cells assessed as inhibition of Abeta(1-42)-induced cytotoxicity by measuring increase in cell viability at 20 uM incubated for 24 hrs by MTT assay relative to control. It is filed as functional. On the technique in general: Formazan colour is commonly taken as a measure of viable cells.
The subject of series [4] is Neuron. As to the kind of experiment: Neuroprotective activity against rat neuron cells assessed as inhibition of Abeta(1-42)-induced cytotoxicity by measuring increase in cell viability at 20 uM incubated for 48 hrs by MTT assay relative to control. The format is functional.
Series [5] can be described thus: Effective permeability of compound by […] method. It is filed as ADME. The conditions noted are these: read-out: Peff. A general note: The PAMPA barrier holds no transporters, so it reflects passive diffusion.
Series [6] in a line: AUC in sixteen hrs fasted Sprague-Dawley rat at 1 mg/kg, iv measured upto 24 hrs by LC-MS/MS analysis. It is filed as ADME, organism-based. On the set-up: time < 24 hrs, dose 1 mg/kg, route iv. The settings on record: in vivo.
The nature of series [7]: Cmax in sixteen hrs fasted Sprague-Dawley rat at 1 mg/kg, iv measured upto 24 hrs by LC-MS/MS analysis. The format is ADME, organism-based. Further details: dose 1 mg/kg, time < 24 hrs, route iv. The settings on record: in vivo.
Series [8] is described as follows: AUC in sixteen hrs fasted Sprague-Dawley rat at 3 mg/kg, po measured upto 24 hrs by LC-MS/MS analysis. It is filed as ADME, organism-based. On the set-up: time < 24 hrs, dose 3 mg/kg, route po. The conditions noted are these: in vivo.
The nature of series [9]: Cmax in sixteen hrs fasted Sprague-Dawley rat at 3 mg/kg, po measured upto 24 hrs by LC-MS/MS analysis. The conditions noted are these: in vivo. It is filed as ADME, organism-based. On the set-up: time < 24 hrs, dose 3 mg/kg, route po.
The target of series [10] is Mitogen-activated protein kinase 10 (Homo sapiens, UniProt P53779). Description: Inhibition of JNK3 (unknown origin) using ATF2 as substrate incubated for 40 mins in presence of [gamma33P]ATP by scintillation counting analysis.
Chain of Mitogen-activated protein kinase 10 (P53779 whole entry): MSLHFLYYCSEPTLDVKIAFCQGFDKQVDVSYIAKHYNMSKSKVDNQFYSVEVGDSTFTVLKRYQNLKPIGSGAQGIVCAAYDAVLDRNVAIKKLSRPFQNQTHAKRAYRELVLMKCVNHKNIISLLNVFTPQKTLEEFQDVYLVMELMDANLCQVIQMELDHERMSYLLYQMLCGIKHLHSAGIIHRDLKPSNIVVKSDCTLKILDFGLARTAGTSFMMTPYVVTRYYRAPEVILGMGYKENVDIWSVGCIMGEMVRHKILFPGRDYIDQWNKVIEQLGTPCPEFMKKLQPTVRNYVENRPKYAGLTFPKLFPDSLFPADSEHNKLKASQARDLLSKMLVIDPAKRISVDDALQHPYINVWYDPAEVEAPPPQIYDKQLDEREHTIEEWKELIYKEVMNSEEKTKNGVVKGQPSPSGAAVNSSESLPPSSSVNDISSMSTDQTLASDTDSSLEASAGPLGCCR
Series [11] can be described thus: AUClast in sixteen hrs fasted Sprague-Dawley rat at 3 mg/kg, po measured upto 24 hrs by LC-MS/MS analysis. On the set-up: dose 3 mg/kg, time < 24 hrs, route po. The settings on record: in vivo. It is filed as ADME, organism-based.
A short description of series [12]: Tmax in sixteen hrs fasted Sprague-Dawley rat at 3 mg/kg, po measured upto 24 hrs by LC-MS/MS analysis. The format is ADME, organism-based. The conditions noted are these: in vivo.
Series [13] is described as follows: Half life in sixteen hrs fasted Sprague-Dawley rat at 3 mg/kg, po measured upto 24 hrs by LC-MS/MS analysis. The format is ADME, organism-based. The conditions noted are these: in vivo.
A short description of series [14]: Apparent permeability of the compound across apical side to basolateral side in human Caco-2 cells. The format is ADME, cell-based. A general note: Caco-2 cells form a polarised layer with tight junctions and transporters.
Series [15] is described as follows: Apparent permeability of the compound across basolateral side to apical side in human Caco-2 cells. The format is ADME, cell-based.
A short description of series [16]: Efflux ratio of apparent permeability across basolateral to apical side to apical to basolateral side in human Caco-2 cells. It is filed as ADME, cell-based.
The test system of series [17] is Mus musculus. As to the kind of experiment: Anti-alzheimer activity against APP/PS1 dE9 double transgenic mouse model assessed as spontaneous alteration at 30 mg/kg, po administered daily for 2 months and measured after 57 days by Y-maze test (reference value: 45.69+/-2.33%). The format is functional. The conditions noted are these: time 57 day.
Series [18] concerns Mus musculus. Description: Anti-alzheimer activity against APP/PS1 dE9 double transgenic mouse model assessed as spontaneous alteration at 60 mg/kg, po administered daily for 2 months and measured after 57 days by Y-maze test (reference value: 45.69+/-2.33%). It is filed as functional. The settings on record: time 57 day.
Series [19] deals with Mus musculus. As to the kind of experiment: Anti-alzheimer activity against APP/PS1 dE9 double transgenic mouse model assessed as escape latency time at 30 mg/kg, po administered daily for 2 months and measured after 60 days by Passive avoidance test (reference value: 55.3+/-8.2 sec). The format is functional. The settings on record: time 60 day.
Series [20] deals with Mus musculus. As to the kind of experiment: Anti-alzheimer activity against APP/PS1 dE9 double transgenic mouse model assessed as escape latency time at 60 mg/kg, po administered daily for 2 months and measured after 60 days by Passive avoidance test (reference value: 55.3+/-8.2 sec). The format is functional. The conditions noted are these: time 60 day.
Series [21] concerns Mus musculus. Description: Anti-alzheimer activity against APP/PS1 dE9 double transgenic mouse model assessed as time spent in platform quadrant at 30 mg/kg, po administered daily for 2 months and measured after 74 days by Morris water maze test (reference value: 14.40+/-1.60 %). The conditions noted are these: time 74 day. The format is functional.
Series [22] deals with Mus musculus. Description: Anti-alzheimer activity against APP/PS1 dE9 double transgenic mouse model assessed as time spent in platform quadrant at 60 mg/kg, po administered daily for 2 months and measured after 74 days by Morris water maze test (reference value: 14.40+/-1.60 %). The format is functional. The conditions noted are these: time 74 day.
Series [23] relates to Mus musculus. As to the kind of experiment: Anti-alzheimer activity against APP/PS1 dE9 double transgenic mouse model assessed as time spent in target zone at 30 mg/kg, po administered daily for 2 months and measured after 74 days by Morris water maze test (reference value: 10.56+/-1.59 %). The conditions noted are these: time 74 day. It is filed as functional.
The subject of series [24] is Mus musculus. Description: Anti-alzheimer activity against APP/PS1 dE9 double transgenic mouse model assessed as time spent in target zone at 60 mg/kg, po administered daily for 2 months and measured after 74 days by Morris water maze test (reference value: 10.56+/-1.59 %). It is filed as functional. The conditions noted are these: time 74 day.
The target of series [25] is Mitogen-activated protein kinase 10 (Rattus norvegicus) (UniProt P49187). As to the kind of experiment: Inhibition of anisomycin induced JNK3 activation in rat cortex neuron cells assessed as reduction in Jun phosphorylation levels at 10 to 20 uM preincubated for 90 mins followed by anisomycin addition and measured after 40 mins by Western blot analysis. The format is cell-based. The conditions noted are these: dose 10-20 µM, time 130.0 min.
Chain of Mitogen-activated protein kinase 10 (Rattus norvegicus) (P49187 whole entry): as the sequence (P53779 whole entry) above, with Q27H, Y32S, I33V, A34V counted along it

For series [26] the target is unchanged. Description: Inhibition of A-beta (1 to 42) induced JNK3 activation in rat cortex neuron cells assessed as reduction in c-Jun phosphorylation levels at 10 to 20 uM incubated for 24 hrs in presence of A-beta (1 to 42) by Western blot analysis. The format is cell-based. The conditions noted are these: dose 10-20 µM.
For series [27], the system named is Neuron. As to the kind of experiment: Inhibition of apoptosis in rat cortex neuron cells assessed as prevention of A-beta (1 to 42) induced cleaved caspase-3 formation at 10 to 20 uM measured after 24 hrs by Western blot analysis. The format is functional, cell-based. The conditions noted are these: dose 10-20 µM.
In series [28] the test system is Neuron. Description: Inhibition of apoptosis in rat cortex neuron cells assessed as prevention of A-beta (1 to 42) induced cleaved PARP formation at 10 to 20 uM measured after 24 hrs by Western blot analysis. The format is functional, cell-based. The conditions noted are these: dose 10-20 µM.
Series [29] deals with Mitogen-activated protein kinase 10 (Rattus norvegicus) (UniProt P49187). As to the kind of experiment: Inhibition of anisomycin induced JNK3 activation in rat cortex neuron cells assessed as inhibition of APP phosphorylation at 10 to 20 uM preincubated for 90 mins followed by anisomycin addition and measured after 40 mins by Western blot analysis. The settings on record: dose 10-20 µM. It is filed as cell-based.

Chain of Mitogen-activated protein kinase 8 (P45983 whole entry): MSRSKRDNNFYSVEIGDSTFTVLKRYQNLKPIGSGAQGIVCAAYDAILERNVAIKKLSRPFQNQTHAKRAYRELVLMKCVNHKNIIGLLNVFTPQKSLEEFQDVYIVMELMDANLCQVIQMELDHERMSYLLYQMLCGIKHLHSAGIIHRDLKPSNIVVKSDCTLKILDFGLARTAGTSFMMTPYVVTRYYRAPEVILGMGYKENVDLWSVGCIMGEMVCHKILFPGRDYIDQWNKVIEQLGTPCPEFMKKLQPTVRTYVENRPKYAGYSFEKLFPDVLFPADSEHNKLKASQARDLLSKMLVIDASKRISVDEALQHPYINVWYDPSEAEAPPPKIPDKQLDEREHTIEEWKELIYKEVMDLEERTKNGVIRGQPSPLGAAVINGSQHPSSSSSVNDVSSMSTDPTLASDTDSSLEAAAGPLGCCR

Regarding `O=C(C1CC1)N1CCC[C@H](Nc2nccc(-n3c(-c4ccc5ccccc5c4)nc4ccc(O)cc43)n2)C1`, the IC50 in series [1] is 301 nM; in series [2], 125 nM. Also, the Activity with Neuron [3] is recorded as 41.2%; in the series with Neuron [4], 21.8%. Moreover, in [5], the Papp came out at 35.1 ×10⁻⁶ cm/s. The molecule also registered an AUC at 24 h in series [6] of 349 ng·h/mL. In series [7], this molecule showed a peak concentration (Cmax) of 1510 ng/mL.
In series [8], `CNC(=O)Oc1ccc2nc(-c3ccc4ccccc4c3)n(-c3ccnc(N[C@H]4CCCN(C(=O)C5CC5)C4)n3)c2c1` registered an AUC at 24 h of 351 ng·h/mL. This molecule displayed a maximum concentration (Cmax) in [9] of 342 ng/mL. Further, the IC50 in series [1] came to 1040 nM; in [2], 973 nM; in series [10], 53 nM. Besides, the Activity is listed as 34.8% with Neuron [3]; 17.2% in the series with Neuron [4]; 52.7% in the series with Mus musculus [17]; 53.46% in the series on Mus musculus [18]; 16.84% with Mus musculus [21]; 21.12% with Mus musculus [22]. Moreover, the Activity is given as 12.57% in the series on Mus musculus [23] and 16.42% in the series on Mus musculus [24]. For the same molecule, in series [11], the AUC(0-t) at 24 h is 351 ng·h/mL. The Tmax in series [12] is 23.4 min. In series [13], this molecule showed a half-life of 39 min. Further, the Papp in [5] was 67.2 ×10⁻⁶ cm/s. Further, the Papp A→B in [14] is 4.9 ×10⁻⁶ cm/s. In [15], the Papp B→A is 11.3 ×10⁻⁶ cm/s. For the same molecule, the efflux ratio in series [16] was determined as 2.31. For the same molecule, the results for the Time in the series on Mus musculus [19] and in the series with Mus musculus [20] were 61.6 s and 59.3 s, respectively.
Regarding `O=C(C1CC1)N1CCC[C@H](Nc2nccc(-n3c(-c4ccc5ccccc5c4)nc4c(F)cc(O)cc43)n2)C1`, in series [9], the highest level (Cmax) was 423 ng/mL. Moreover, the values for the IC50 in [1], in [2] and in [10] were 705 nM, 151 nM and 10 nM, respectively. Also, the Activity in the series with Neuron [3] came out at 59.5%; in the series with Neuron [4], 35.2%. Moreover, the Papp in series [5] turned out to be 22.9 ×10⁻⁶ cm/s. Besides, the inhibition entry (in [25]; in [26]; with Neuron [27]; with Neuron [28]; in series [29]) was “Active” throughout.
`CN(C)C(=O)Oc1ccc2nc(-c3ccc4ccccc4c3)n(-c3ccnc(N[C@H]4CCCN(C(=O)C5CC5)C4)n3)c2c1`: the AUC at 24 h in series [8] worked out at 554 ng·h/mL. For the same molecule, the maximum concentration (Cmax) in series [9] stood at 483 ng/mL.
For the molecule `CCNC(=O)Oc1ccc2nc(-c3ccc4ccccc4c3)n(-c3ccnc(N[C@H]4CCCN(C(=O)C5CC5)C4)n3)c2c1`, the area under the curve (AUC) at 24 h in [8] amounted to 260 ng·h/mL. The same molecule displayed a Cmax in series [9] of 253 ng/mL.
In series [8], `NC(=O)Oc1ccc2nc(-c3ccc4ccccc4c3)n(-c3ccnc(N[C@H]4CCCN(C(=O)C5CC5)C4)n3)c2c1` showed an AUC at 24 h of 345 ng·h/mL. In series [9], the Cmax is 277 ng/mL.
Consider `N#CCc1cnc(-c2ccc3ccccc3c2)n1-c1ccnc(N[C@H]2CCCN(C(=O)C3CC3)C2)n1`, for which the exposure (AUC) at 24 h in series [8] is 392 ng·h/mL; in [6], 614 ng·h/mL. Besides, in the series on Neuron [3], the Activity is recorded as 14.1%. In series [7], this molecule had a Cmax of 1120 ng/mL.
As to `CC(=O)[C@H]1CC[C@H]2[C@@H]3CCC4=CC(=O)CC[C@]4(C)[C@H]3CC[C@]12C` [PROGESTERONE], the Papp in [5] was determined as 26.5 ×10⁻⁶ cm/s.

By IC50 is commonly meant the point on the concentration scale where inhibition reaches its midpoint. What is called AUC is concentration integrated over time. Broadly, the Cmax is the peak of the concentration-time curve. Usually AUC(0-t) stands for exposure summed from dosing to a finite time, without extrapolation to infinity. The low end stands for low exposure, the high end for high exposure. In general, Tmax refers to the time from dosing to the highest level. By half-life is commonly meant the time needed for the level to fall by half in the phase considered. As usually defined, the Papp A→B is the apparent permeability from the apical to the basolateral side of a cell layer. Broadly, the Papp B→A is the apparent permeability from the basolateral to the apical side of a cell layer. Usually efflux ratio stands for the permeability from basolateral to apical divided by that in the opposite direction, in the common usage.

The values above are taken from ChEMBL document CHEMBL5338752, “Carbamate JNK3 Inhibitors Show Promise as Effective Treatments for Alzheimer's Disease: In Vivo Studies on Mouse Models” (J Med Chem, 2023).
